Test results: patent US20110052713A1, “REPAIRING DAMAGED NERVOUS SYSTEM TISSUE WITH NANOPARTICLES” (priority 2008, published 2011)
Like-named read-outs stand apart in the source and are kept apart here.

Legend:
[1] = tested on: voltage gated fast potassium channels; details: paralyzed persons; cited from earlier work
PC 12 cells [2] = experiment: LDH release after acrolein exposure (chitosan nanoparticles); type: cell-based; details: Rattus norvegicus, 100 μM acrolein, post-treatment with nanoparticles, acrolein row = acrolein alone, read-out: LDH release, % of control values
Procedure: (§1) In one example, functional tests (MTT and LDH exclusion tests) were used to evaluate the response to different chitosan formulations in PC 12 cells suffering from acrolein exposure. We compared the effectiveness of these formulations using entire cell populations in six different groups: 1) a control group, (2) a 100 μM acrolein-exposed group, (3) a 100 μM acrolein-exposed and Chi-DS nanoparticle—treated group, (4) a 100 μM acrolein-exposed and Chi-DS/Hy nanoparticle—treated group, (5) a 100 μM acrolein-exposed and Chi-TPP nanoparticle—treated group, and (6) a 100 μM acrolein-exposed and Chi-TPP/Hy nanoparticle—treated group. First, we tested whether chitosan nanoparticles were capable of sufficiently reducing acrolein cytotoxicity using the MTT assay. In all experiments, the various types of nanoparticles were added to the cell medium after 15 min following the exposure to acrolein. As a consequence of acrolein exposure, approximately 98% of the cells in culture died within a couple of hours. Acrolein-induced cytotoxicity was expressed as a percentage of MTT activity, which is, as explained above, an indicator of aberrant mitochondria functioning. Thus, MTT activity subsequent to 100 acrolein exposure was decreased to 3.5±2.9% of controls values. […] Even more significant increase was observed after application of hydralazine-entrapped chitosan nanoparticles. […]

PC 12 cells [3] = details: 100 μM acrolein, cited from earlier work
[4] = tested on: acrolein poisoned cultures; experiment: ROS level in acrolein poisoned cultures; type: cell-based; details: 100 μM acrolein; acrolein row = acrolein alone; read-out: level of ROS, % of control values
PC 12 cells [5] = experiment: LDH release assay after acrolein exposure (MSN study); type: cell-based; details: Rattus norvegicus, PC-12, 0.25 h; 100 μM acrolein; treatment added with 15 min delay; acrolein row = acrolein alone; read-out: LDH release, % of control values
Procedure: (§2) Exposure to 100 μM acrolein can induce the death of >80% of a population of PC 12 Cells by a few hours, and 100% by 8-12 hours of observation. […] Typically, populations of cells with acrolein-mediated damage show a significant reduction in MTT activity due to the collapse of mitochondria function.

PC 12 cells [6] = experiment: MTT assay after acrolein exposure (MSN study); type: cell-based; details: Rattus norvegicus, read-out: MTT activity (absorbance), % of control values
Procedure: as §2

PC 12 cells [7] = experiment: Live-dead cell assay after acrolein exposure; type: cell-based; details: 5 hr, control cells 90±7%
PC 12 cells [8] = experiment: MTT assay after acrolein exposure (chitosan nanoparticles); type: cell-based
Procedure: as §1

Nc1ccncc1 [4-Aminopyridine]
share of treated population with clinically meaningful recoveries of function [1]: about 30%

C=CC=O [acrolein]
activity at 100 µM (PC 12 cells [2]): 178 ± 25.4%
death of cell population (PC 12 cells [3]; by 8-12 hours of observation): 100%
death of cell population (PC 12 cells [3]; by a few hours): > 80%
activity at 100 µM [4]: 120 ± 14%
activity at 100 µM (PC 12 cells [5]): 168 ± 15.4%
activity at 100 µM (PC 12 cells [6]): 11 ± 10.2%
cell survival (live-dead cell assay) (PC 12 cells [7]): 30±8%
activity at 100 µM (PC 12 cells [8]; Rattus norvegicus, PC-12, 100 μM acrolein, nanoparticles added 15 min after, after 5 hr, acrolein row = acrolein alone, read-out: MTT activity / survival, % of control values): 3.5 ± 2.9%
cells in culture that died (PC 12 cells [8]; acrolein exposure, within a couple of hours): approximately 98%

NNc1nncc2ccccc12 [hydralazine]
activity at 500 µM (PC 12 cells [6]): 53.8 ± 18.6%
